Measurements reported in patent US9597407B2, “Targeted antimicrobial moieties” (C3 Jian, Inc., priority 2009, dated 2017).
“Also recorded” adds a separate entry of the source. Square brackets hold non-standard residues; d marks the D form. Ends that are not written are not given here. dOrn = NCCC[C@@H](N)C(=O)O

Tested on: bacteria
Test: Binding of targeting peptides to microorganisms (Table 3)
[1] = microorganism the targeting peptide binds, binding in aqueous buffers that varied with peptide solubility, preferably 1x PBS
[2] = microorganism bound by the targeting peptide, binding in aqueous buffers chosen by peptide solubility, preferably 1x PBS
[3] = peptide binding in aqueous buffers that varied depending on peptide solubility, preferably 1x PBS

| Substance | Target(s) [1] | also measured |
| --- | --- | --- |
| 1T-237 (EDPVPNHFTLRRNKKEKPSKS; Peptide with targeting and/or antimicrobial activity) [Peptide 1T-237] | S. sanguinis | – |
| 1T-239 (ADDLLNKRLTDLIMENAETVKTIDLDNSD; Peptide with targeting and/or antimicrobial activity) [Peptide 1T-239] | A. naeslundii; also recorded: S. gordonii; also recorded: S. mitis; also recorded: S. mutans; also recorded: S. oralis; also recorded: S. sanguinis | – |
| 1T-242 (KQVQNTTLIICGTVLLGILFKSYLKSQKSV; Peptide with targeting and/or antimicrobial activity) [Peptide 1T-242] | F. nucleatum; also recorded: S. sanguinis | – |
| 1T-248 (IGGALNSCG; Peptide with targeting and/or antimicrobial activity) [Peptide 1T-248] | S. sanguinis | – |
| 1T-249 (VFSVLKHTTWPTRKQSWHDFISILEYSAFFALVIFIFDKLLTLGLAELLKRF; Peptide with targeting and/or antimicrobial activity) [Peptide 1T-249] | F. nucleatum; also recorded: S. sanguinis | – |
| 1T-250 (LVQGDTILIENHVGTPVKDDGKDCLIIREADVLAVVND; Peptide with targeting and/or antimicrobial activity) [Peptide 1T-250] | S. mitis; also recorded: S. mutans; also recorded: S. oralis | – |
| 1T-252 (MKKNLKRFYALVLGFIIGCLFVSILIFIGY; Peptide with targeting and/or antimicrobial activity) [Peptide 1T-252] | F. nucleatum; also recorded: S. sanguinis | – |
| 1T-256 (KGKSLMPLLKQINQWGKLYL; Peptide with targeting and/or antimicrobial activity) [Peptide 1T-256] | S. sanguinis | – |
| 1T-258 (TINIDDKVLDYLKKINSKAITIDLIGCAS; Peptide with targeting and/or antimicrobial activity) [Peptide 1T-258] | A. naeslundii; also recorded: F. nucleatum; also recorded: P. gingivalis; also recorded: T. denticola; also recorded: S. mitis; also recorded: S. mutans; also recorded: S. oralis | – |
| 1T-259 (EKLKKILLKLAVCGKAWYTL; Peptide with targeting and/or antimicrobial activity) [Peptide 1T-259] | F. nucleatum; also recorded: P. gingivalis; also recorded: T. denticola; also recorded: S. mitis; also recorded: S. mutans; also recorded: S. oralis; also recorded: S. sanguinis | – |
| 1T-260 (NILYFIHDENQWEPQKAEIFRGSIKHCAWLSS; Peptide with targeting and/or antimicrobial activity) [Peptide 1T-260] | A. naeslundii; also recorded: P. gingivalis; also recorded: S. epidermidis; also recorded: S. gordonii; also recorded: S. mitis; also recorded: S. mutans; also recorded: S. oralis; also recorded: S. sanguinis | – |
| 1T-261 (SFEKNKIENNLKIAQAYIYIKPKPRICQA; Peptide with targeting and/or antimicrobial activity) [Peptide 1T-261] | F. nucleatum; also recorded: S. mutans; also recorded: S. oralis; also recorded: S. sanguinis | – |
| 1T-264 (LEGKFYMAEDFDKTPECFKDYV; Peptide with targeting and/or antimicrobial activity) [Peptide 1T-264] | S. sanguinis | – |
| 1T-266 (RAGTWLVVDEIR; Peptide with targeting and/or antimicrobial activity) [Peptide 1T-266] | S. sanguinis | – |
| 1T-267 (RIKEERKNRSYKFFIWRLFDEKTGFI; Peptide with targeting and/or antimicrobial activity) [Peptide 1T-267] | A. naeslundii; also recorded: F. nucleatum; also recorded: P. gingivalis; also recorded: T. denticola; also recorded: S. mitis; also recorded: S. mutans; also recorded: S. oralis; also recorded: S. sanguinis | – |
| 1T-268 (PITPKKEKCGLGTYAPKNPVFSKSRV; Peptide with targeting and/or antimicrobial activity) [Peptide 1T-268] | F. nucleatum; also recorded: S. mutans; also recorded: S. oralis; also recorded: S. sanguinis | – |
| 1T-269 (PLYVAAVEKINTAKKH; Peptide with targeting and/or antimicrobial activity) [Peptide 1T-269] | F. nucleatum; also recorded: S. mutans; also recorded: S. oralis; also recorded: S. sanguinis | – |
| 1T-270 (VHEFDIQKILQNR; Peptide with targeting and/or antimicrobial activity) [Peptide 1T-270] | F. nucleatum; also recorded: S. mutans; also recorded: S. oralis; also recorded: S. sanguinis | – |
| 1T-272 (QLAPIDKQLKAVKKIAFYESESTAAKAVTVA; Peptide with targeting and/or antimicrobial activity) [Peptide 1T-272] | F. nucleatum; also recorded: S. mutans; also recorded: S. oralis; also recorded: S. sanguinis | – |
| 1T-273 (YNEPNYKWLESYKIYKQRCEDRTGMYYTEET; Peptide with targeting and/or antimicrobial activity) [Peptide 1T-273] | F. nucleatum; also recorded: P. gingivalis; also recorded: T. denticola; also recorded: S. mitis; also recorded: S. mutans; also recorded: S. oralis | – |
| 1T-274 (ETTTEINAIKLHRIKQRSPQGTRRVN; Peptide with targeting and/or antimicrobial activity) [Peptide 1T-274] | F. nucleatum; also recorded: S. mutans; also recorded: S. oralis; also recorded: S. sanguinis | – |
| 1T-282 (ISLVFPAYT; Peptide with targeting and/or antimicrobial activity) [Peptide 1T-282] | F. nucleatum; also recorded: P. gingivalis; also recorded: S. gordonii; also recorded: S. mitis; also recorded: S. mutans; also recorded: S. oralis; also recorded: S. salivarious; also recorded: S. sanguinis | – |

| Substance | Target(s) [1] | also measured |
| --- | --- | --- |
| 1T-286 (LGFFNNKADLVKADTERDNRMSSLKIKDL; Peptide with targeting and/or antimicrobial activity) [Peptide 1T-286] | S. sanguinis | – |
| 1T-287 (KGYPLPFQYRLNNH; Peptide with targeting and/or antimicrobial activity) [Peptide 1T-287] | P. gingivalis; also recorded: T. denticola; also recorded: S. gordonii; also recorded: S. mitis; also recorded: S. mutans; also recorded: S. oralis; also recorded: S. salivarious; also recorded: S. sanguinis | – |
| 1T-288 (RWVGGEPSADIYLSAKDTKT; Peptide with targeting and/or antimicrobial activity) [Peptide 1T-288] | F. nucleatum; also recorded: S. gordonii; also recorded: S. salivarious; also recorded: S. sanguinis | – |
| 1T-289 (EPSADIYLSAKDTKT; Peptide with targeting and/or antimicrobial activity) [Peptide 1T-289] | F. nucleatum; also recorded: P. gingivalis; also recorded: S. gordonii; also recorded: S. mitis; also recorded: S. mutans; also recorded: S. oralis; also recorded: S. sanguinis | – |
| 1T-291 (DMKIIKLYIKILSFLFIKYCNKKLNSVKLKA; Peptide with targeting and/or antimicrobial activity) [Peptide 1T-291] | A. naeslundii; also recorded: F. nucleatum; also recorded: P. gingivalis; also recorded: T. denticola; also recorded: S. mitis; also recorded: S. mutans; also recorded: S. oralis | – |
| 1T-294 (YDKIADGVFKIGKRGVL; Peptide with targeting and/or antimicrobial activity) [Peptide 1T-294] | T. denticola | – |
| 1T-295 (KYKLKKIIL; Peptide with targeting and/or antimicrobial activity) [Peptide 1T-295] | S. mitis; also recorded: S. salivarious; also recorded: S. sanguinis | – |
| 1T-297 (RSLRLNNALTKLPKLWYNRIKEAFYAYNDYDK; Peptide with targeting and/or antimicrobial activity) [Peptide 1T-297] | A. naeslundii; also recorded: F. nucleatum; also recorded: T. denticola; also recorded: S. mitis; also recorded: S. mutans; also recorded: S. oralis | – |
| 1T-301 (SKLPRVLDASLKL; Peptide with targeting and/or antimicrobial activity) [Peptide 1T-301] | F. nucleatum; also recorded: S. gordonii; also recorded: S. sanguinis | – |
| 1T-304 (STAGEASRRTASEASRRTAAKLRG; Peptide with targeting and/or antimicrobial activity) [Peptide 1T-304] | P. gingivalis | – |
| AIEGVIKKGACFKLLRHEMF [PF-167] | – | Target(s) [2]: S. epidermidis and E. coli and C. albicans and MRSA and C. jeikeium and C. jejuni |
| ASKQASKQASKQASKQASKQASRSLKNHLL [PF-523] | – | Target(s) (microorganisms bound by the targeting peptide) [3]: S. epidermidis; also recorded: M. luteus; also recorded: C. albicans; also recorded: S. pneumoniae; also recorded: C. jeikeium; also recorded: C. jejuni |
| CHA0 (D[dOrn]KTAA[dOrn]K; bridge (positions not given here); not fully specified (bridges)) | P. fluorescens | – |
| DAANEA-GGG [BL-1] | – | bacterial binding (data not shown): no bacterial binding |
| HIKETR (Peptide with targeting and/or antimicrobial activity) [PF-222] | – | Target(s) [2]: S. epidermidis |
| LVLRICTDLFTFIKWTIKQRKS [PF-497] | – | Target(s) (microorganisms bound by the targeting peptide) [3]: S. mutans; also recorded: B. subtilis; also recorded: E. coli |
| MKKLVAALAVIVILTGCVYDPVNYDKIHDQEFQDHLRQNG [PF-252] | – | Target(s) [2]: S. mutans |
| MLTSRKKRLKKIVEEQNKKDESI [PF-336] | – | Target(s) [2]: S. mutans; also recorded: E. coli |
| PEIIKIVSGLL [PF-758] | – | Target(s) (microorganism bound by the targeting peptide) [3]: S. epidermidis and M. luteus and E. coli and MRSA and S. pneumoniae and E. faecalis and C. jeikeium |
| PF-014 (HPTDNKHN; Peptide with targeting and/or antimicrobial activity) | E. coli; also recorded: C. jeikeium | – |
| PF-016 (RKQYDDLSFNFLY; Peptide with targeting and/or antimicrobial activity) | S. epidermidis; also recorded: E. faecalis; also recorded: C. jeikeium | – |
| PF-018 (YYKTYFKEV; Peptide with targeting and/or antimicrobial activity) | E. coli; also recorded: C. jeikeium | – |
